pIC50, pKd: −log10 of the molar value. Calls of active or inactive are those of the source. The rule behind the calls is not given here.
Assays:
Quadruplex DNA [1] = assay: Binding affinity to FAM/TAMRA-labelled parallel c-MYC Pu24T G4 DNA (unknown origin) assessed as thermal stabilization at 1 to 8 uM measured at 10 to 95 degreeC by FRET analysis; type: nucleic-acid assay; details: dose 1-8 µM
dsDNA = assay: Binding affinity to double stranded DNA (unknown origin) assessed as thermal stabilization at 1 to 8 uM measured at 10 to 95 degreeC by FRET analysis; type: nucleic-acid assay; details: dose 1-8 µM
Quadruplex DNA [2] = assay: Binding affinity to FAM/TAMRA-labelled parallel KRAS G4 DNA (unknown origin) assessed as thermal stabilization in the presence of 15 equivalents of double stranded DNA by FRET competition assay; type: nucleic-acid assay
Quadruplex DNA [3] = assay: Binding affinity to FAM/TAMRA-labelled c-KIT1 G4 DNA (unknown origin) assessed as thermal stabilization at 1 to 8 uM measured at 10 to 95 degreeC by FRET analysis; type: nucleic-acid assay; details: dose 1-8 µM
Quadruplex DNA [4] = assay: Binding affinity to FAM/TAMRA-labelled parallel c-MYC Pu24T G4 DNA (unknown origin) assessed as thermal stabilization by measuring change in melting temperature at 2 uM in the presence of 100 equivalents of double stranded DNA by FRET competition assay; type: nucleic-acid assay
Quadruplex DNA [5] = assay: Binding affinity to FAM/TAMRA-labelled parallel 25ceb G4 DNA (unknown origin) assessed as thermal stabilization at 1 to 8 uM measured at 10 to 95 degreeC by FRET analysis; type: nucleic-acid assay; details: dose 1-8 µM
Quadruplex DNA [6] = assay: Binding affinity to FAM/TAMRA-labelled parallel KRAS G4 DNA (unknown origin) assessed as thermal stabilization by measuring change in melting temperature at 2 uM in the presence of 100 equivalents of double stranded DNA by FRET competition assay; type: nucleic-acid assay
Quadruplex DNA [7] = assay: Binding affinity to FAM/TAMRA-labelled 21g G4 DNA (unknown origin) assessed as thermal stabilization at 1 to 8 uM measured at 10 to 95 degreeC by FRET analysis; type: nucleic-acid assay; details: dose 1-8 µM
Quadruplex DNA [8] = assay: Binding affinity to FAM/TAMRA-labelled c-KIT2 G4 DNA (unknown origin) assessed as thermal stabilization at 1 to 8 uM measured at 10 to 95 degreeC by FRET analysis; type: nucleic-acid assay; details: dose 1-8 µM
Quadruplex DNA [9] = assay: Binding affinity to parallel c-MYC Pu24T G4 DNA (unknown origin) assessed as change in topology at 5 uM by CD spectra analysis; type: nucleic-acid assay
Quadruplex DNA [10] = assay: Binding affinity to parallel c-MYC Pu24T G4 DNA (unknown origin) assessed as thermal stabilization by measuring change in melting temperature at 5 uM measured at 1:1 DNA to ligand ratio by CD spectra analysis; type: nucleic-acid assay
Quadruplex DNA [11] = assay: Binding affinity to FAM/TAMRA-labelled antiparallel Bom17 G4 DNA (unknown origin) assessed as thermal stabilization at 1 to 8 uM measured at 10 to 95 degreeC by FRET analysis; type: nucleic-acid assay; details: dose 1-8 µM
Quadruplex DNA [12] = assay: Binding affinity to FAM/TAMRA-labelled antiparallel TBA G4 DNA (unknown origin) assessed as thermal stabilization at 1 to 8 uM measured at 10 to 95 degreeC by FRET analysis; type: nucleic-acid assay; details: dose 1-8 µM
Quadruplex DNA [13] = assay: Binding affinity to FAM/TAMRA-labelled parallel c-MYC Pu24T G4 DNA (unknown origin) assessed as thermal stabilization in the presence of 15 equivalents of double stranded DNA by FRET competition assay; type: nucleic-acid assay
Quadruplex DNA [14] = assay: Binding affinity to 5'-Cy5-labelled parallel c-MYC Pu24T G4 DNA (unknown origin) assessed as dissociation constant by MST analysis; type: nucleic-acid assay
Quadruplex DNA [15] = assay: Binding affinity to FAM/TAMRA-labelled c-MYC Pu22 G4 DNA (unknown origin) assessed as thermal stabilization at 1 to 8 uM measured at 10 to 95 degreeC by FRET analysis; type: nucleic-acid assay; details: dose 1-8 µM
[16] = Antitumor activity against KPC mouse pancreatic cancer organoid expressing lentiviral modified GFP co-cultured with WT C57BL/6J mouse pancreatic stellate cells expressing mKate2 assessed as inhibition of cell growth incubated for 5 days by resazurin dye based fluorescence microscopic analysis; type: functional, tissue-based; details: 120 h
[17] = Cytotoxicity against wildtype C57BL/6J mouse cancer activated fibroblast cells assessed as inhibition of cell growth incubated for 5 days by resazurin dye based fluorescence microscopic analysis; type: toxicity
Quadruplex DNA [18] = assay: Binding affinity to FAM/TAMRA-labelled parallel KRAS G4 DNA (unknown origin) assessed as thermal stabilization at 1 to 8 uM measured at 10 to 95 degreeC by FRET analysis; type: nucleic-acid assay; details: dose 1-8 µM

For `CCN(CC)CCCCCNc1cc(C)nc(Nc2nc(C)c3ccc4c(c3n2)CCCC4)n1`, the Activity (Quadruplex DNA [1]) was “Active”.
In the case of `Cc1cc(N2CCN(C)CC2)nc(Nc2nc(C)c3ccc4c(c3n2)CCCC4)n1`, the Activity (dsDNA) was “inactive” and the Activity (Quadruplex DNA [1]) was “Active”.
For `Cc1cc(NCCCN2CCN(C)CC2)nc(Nc2nc(C)c3ccc4c(c3n2)CCCC4)n1`, the Activity (Quadruplex DNA [2]) was “Active”, the Activity (dsDNA) was “inactive” and the Activity (Quadruplex DNA [3]) was “Active”. The ΔTm (Quadruplex DNA [4]) was 7 °C, the Activity (Quadruplex DNA [5]) was “inactive” and the ΔTm (Quadruplex DNA [6]) was 10 °C. For the same molecule, the Activity (Quadruplex DNA [7]) was “Active”, the Activity (Quadruplex DNA [8]) was “Active” and the Activity (Quadruplex DNA [9]) was “inactive”. For the same molecule, the ΔTm (Quadruplex DNA [10]) was 6 °C, the Activity (Quadruplex DNA [11]) was “inactive” and the Activity (Quadruplex DNA [1]) was “Active”. The Activity (Quadruplex DNA [12]) was “inactive”, the Activity (Quadruplex DNA [13]) was “Active” and the pKd (Quadruplex DNA [14]) was 6.55. For the same molecule, the Activity (Quadruplex DNA [15]) was “Active”.
For `CCN(CC)CCCNc1cc(C)nc(Nc2nc(C)c3ccc4c(c3n2)CCC4)n1`, the Activity (Quadruplex DNA [2]) was “Active”, the Activity (dsDNA) was “inactive” and the Activity (Quadruplex DNA [3]) was “Active”. The ΔTm (Quadruplex DNA [4]) was 7 °C, the Activity (Quadruplex DNA [5]) was “inactive” and the ΔTm (Quadruplex DNA [6]) was 10 °C. For the same molecule, the pIC50 [16] was 6.71, the Activity (Quadruplex DNA [7]) was “Active” and the IC50 at 5 days [17] was 2.82 µM. The Activity (Quadruplex DNA [8]) was “Active”, the Activity (Quadruplex DNA [9]) was “inactive” and the ΔTm (Quadruplex DNA [10]) was 5 °C. For the same molecule, the Activity (Quadruplex DNA [11]) was “inactive”, the Activity (Quadruplex DNA [1]) was “Active” and the Activity (Quadruplex DNA [12]) was “inactive”. For the same molecule, the Activity (Quadruplex DNA [13]) was “Active”, the pKd (Quadruplex DNA [14]) was 6.44 and the Activity (Quadruplex DNA [15]) was “Active”.
In the case of `Cc1cc(N(C)C)nc(Nc2nc(C)c3ccc4c(c3n2)CCCC4)n1`, the Activity (dsDNA) was “inactive” and the Activity (Quadruplex DNA [1]) was “Active”.
With `Cc1cc(N2CCN(c3ncccn3)CC2)nc(Nc2nc(C)c3ccc4c(c3n2)CCC4)n1` the Activity (dsDNA) was “inactive”, the Activity (Quadruplex DNA [1]) was “inactive” and the Activity (Quadruplex DNA [18]) was “inactive”.
With `CCOC(=O)CCN1CCN(c2cc(C)nc(Nc3nc(C)c4ccc5c(c4n3)CCC5)n2)CC1` the Activity (dsDNA) was “inactive”, the Activity (Quadruplex DNA [1]) was “inactive” and the Activity (Quadruplex DNA [18]) was “inactive”.
In the case of `Cc1cc(N2CCNCC2)nc(Nc2nc(C)c3ccc4c(c3n2)CCC4)n1`, the Activity (dsDNA) was “inactive”, the Activity (Quadruplex DNA [1]) was “Active” and the Activity (Quadruplex DNA [18]) was “Active”.
With `Cc1cc(NCCCN2CCCCC2)nc(Nc2nc(C)c3ccc4c(c3n2)CCC4)n1` the Activity (Quadruplex DNA [2]) was “Active”, the Activity (dsDNA) was “inactive” and the Activity (Quadruplex DNA [3]) was “Active”. For the same molecule, the ΔTm (Quadruplex DNA [4]) was 7 °C, the Activity (Quadruplex DNA [5]) was “inactive” and the ΔTm (Quadruplex DNA [6]) was 10 °C. For the same molecule, the pIC50 [16] was 6.10, the Activity (Quadruplex DNA [7]) was “Active” and the IC50 at 5 days [17] was > 0.5 µM. The Activity (Quadruplex DNA [8]) was “Active”, the Activity (Quadruplex DNA [9]) was “inactive” and the ΔTm (Quadruplex DNA [10]) was 4 °C. For the same molecule, the Activity (Quadruplex DNA [11]) was “inactive”, the Activity (Quadruplex DNA [1]) was “Active” and the Activity (Quadruplex DNA [12]) was “inactive”. The Activity (Quadruplex DNA [13]) was “Active”, the pKd (Quadruplex DNA [14]) was 6.55 and the Activity (Quadruplex DNA [15]) was “Active”.
In the case of `Cc1cc(NCCN2CCOCC2)nc(Nc2nc(C)c3ccc4c(c3n2)CCCC4)n1`, the Activity (dsDNA) was “inactive”.
For `Cc1cc(N2CCOCC2)nc(Nc2nc(C)c3ccc4c(c3n2)CCC4)n1`, the Activity (dsDNA) was “inactive”.
With `Cc1cc(NCCN2CCN(C)CC2)nc(Nc2nc(C)c3ccc4c(c3n2)CCC4)n1` the Activity (dsDNA) was “inactive”, the pIC50 [16] was 6.26 and the IC50 at 5 days [17] was > 0.5 µM. The Activity (Quadruplex DNA [1]) was “Active” and the Activity (Quadruplex DNA [18]) was “Active”.
For `Cc1cc(NCCCN2CCCCC2)nc(Nc2nc(C)c3ccc4c(c3n2)CCCC4)n1`, the Activity (Quadruplex DNA [2]) was “Active”, the Activity (dsDNA) was “inactive” and the Activity (Quadruplex DNA [3]) was “Active”. The ΔTm (Quadruplex DNA [4]) was 7 °C, the Activity (Quadruplex DNA [5]) was “inactive” and the ΔTm (Quadruplex DNA [6]) was 10 °C. For the same molecule, the Activity (Quadruplex DNA [7]) was “Active”, the Activity (Quadruplex DNA [8]) was “Active” and the Activity (Quadruplex DNA [9]) was “inactive”. For the same molecule, the ΔTm (Quadruplex DNA [10]) was 5 °C, the Activity (Quadruplex DNA [11]) was “inactive” and the Activity (Quadruplex DNA [1]) was “Active”. For the same molecule, the Activity (Quadruplex DNA [12]) was “inactive”, the Activity (Quadruplex DNA [13]) was “Active” and the pKd (Quadruplex DNA [14]) was 6.76. For the same molecule, the Activity (Quadruplex DNA [15]) was “Active”.
For `Cc1cc(N2CCN(C(=O)OC(C)(C)C)CC2)nc(Nc2nc(C)c3ccc4c(c3n2)CCC4)n1`, the Activity (dsDNA) was “inactive”, the Activity (Quadruplex DNA [1]) was “inactive” and the Activity (Quadruplex DNA [18]) was “inactive”.
For `Cc1cc(N2CCN(C(=O)OC(C)(C)C)CC2)nc(Nc2nc(C)c3ccc4c(c3n2)CCCC4)n1`, the Activity (dsDNA) was “inactive”, the Activity (Quadruplex DNA [1]) was “inactive” and the Activity (Quadruplex DNA [18]) was “inactive”.

Source: ChEMBL document CHEMBL5321208, “The effect of side chain variations on quinazoline-pyrimidine G-quadruplex DNA ligands” (Eur J Med Chem, 2023)
